The values below come from PubChem BioAssay (NCI).

Among the test systems are HCT-15 colon; K-562 leukemia; COLO 205 colon; OVCAR-8 ovarian; HCC-2998 colon; HCT-116 colon; TK-10 renal; SNB-75 CNS; HOP-92 NSCLC; UACC-257 melanoma.
Common to all, as to assay: growth of human tumour cells (NCI), 48 h

Where “and” joins values, the source holds several entries; their conditions need not be identical. Equal values may be shown once.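 Step 1: Grow cells in 96-well plates. Step 2: Expose to compound for 48 hours at 5 concentrations. Step 3: Interpolate endpoints linearly; if unreached, use highest concentration. At the GI50, growth is halved. TGI: total growth inhibition.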 Where a SMILES comes first, the peptide text is derived from it. [ ]: non-standard residue; d: D form. Ac5c = NC1(C(=O)O)CCCC1

As for `OC1(CCc2ccccc2)COC(C(F)(F)F)(C(F)(F)F)C1` (stereo not drawn), the TGI with HCT-15 colon, in the test with K-562 leukemia, in the test on COLO 205 colon, in the test on OVCAR-8 ovarian, in the test with HCC-2998 colon and in the test with HCT-116 colon was > 100 µM throughout. Besides, the TGI with TK-10 renal and in the test on SNB-75 CNS was > 100 µM throughout.

As for `O=C(/C=C/c1ccc(F)cc1)c1ccc(Cl)cc1Cl`, the GI50 in the test on HCT-15 colon is 43.8 µM; in the test on K-562 leukemia, 33.9 µM; with COLO 205 colon, 44.2 µM; in the test with OVCAR-8 ovarian it was 33.7 µM; in the test with HCC-2998 colon, 52.7 µM; in the test with HCT-116 colon it was 16.6 µM. In addition, the GI50 was 30 µM with HOP-92 NSCLC, 86.8 µM in the test on TK-10 renal and 68.3 µM in the test on UACC-257 melanoma. In addition, the TGI in the test with HCT-15 colon is > 100 µM; in the test with K-562 leukemia it was > 100 µM; with COLO 205 colon, > 100 µM; with OVCAR-8 ovarian it was > 100 µM; with HCC-2998 colon, > 100 µM; in the test with HCT-116 colon, 31.3 µM. Further, the TGI in the test with HOP-92 NSCLC was 80.8 µM; in the test on TK-10 renal it was > 100 µM; in the test on UACC-257 melanoma it was > 100 µM.

For the compound `CCCCOC(=O)NC(=O)c1cn(CCCOC(=O)CCCCCCCCC(=O)OCCCn2cc(C(=O)NC(=O)OCCCC)c(=O)[nH]c2=O)c(=O)[nH]c1=O`, the TGI in the test with HCT-15 colon, in the test with K-562 leukemia, with COLO 205 colon, with OVCAR-8 ovarian, with HCC-2998 colon and in the test with HCT-116 colon was > 100 µM throughout. Further, the TGI with HOP-92 NSCLC, in the test on TK-10 renal and with UACC-257 melanoma was > 100 µM throughout.

`COc1cc(/C=C(\C#N)C(=O)c2ccccc2)ccc1OCc1ccccc1`: the TGI in the test on HCT-15 colon, with K-562 leukemia, in the test on COLO 205 colon, with OVCAR-8 ovarian, in the test with HCC-2998 colon and in the test with HCT-116 colon was > 100 µM each time. For the same compound, the TGI with TK-10 renal and with UACC-257 melanoma was > 100 µM each time.

Take `CCN(CC)C(=C(C(Cl)=C(Cl)Cl)[N+](=O)[O-])N(CC)CC`: the TGI in the test with HCT-15 colon, in the test with K-562 leukemia, with COLO 205 colon, in the test on OVCAR-8 ovarian, in the test on HCC-2998 colon and in the test on HCT-116 colon was > 100 µM in each case. Besides, the TGI in the test with TK-10 renal, in the test with SNB-75 CNS and in the test with UACC-257 melanoma was > 100 µM in each case.

On to `COc1ccc(-c2onc(-c3ccc([N+](=O)[O-])cc3)c2C2=NCCN2)cc1`, for which the TGI in the test on HCT-15 colon, with K-562 leukemia, in the test with COLO 205 colon, in the test on OVCAR-8 ovarian, with HCC-2998 colon and with HCT-116 colon was > 100 µM throughout. Also, the TGI in the test with SNB-75 CNS is 44 µM; with UACC-257 melanoma, 52.1 µM.

As for `CC(=O)CC(=O)Nc1ccc2ccccc2c1`, the TGI in the test on HCT-15 colon, in the test on K-562 leukemia, in the test on COLO 205 colon, with OVCAR-8 ovarian, with HCT-116 colon and in the test on HOP-92 NSCLC was > 100 µM in each case. The TGI in the test with TK-10 renal, in the test on SNB-75 CNS and in the test on UACC-257 melanoma was > 100 µM throughout.

Take `NC1(C(=O)NC2(C(=O)O)CCCC2)CCCC1` (H-[Ac5c]-[Ac5c]-OH): the TGI with HCT-15 colon, with K-562 leukemia, with COLO 205 colon, in the test on OVCAR-8 ovarian, with HCT-116 colon and with HOP-92 NSCLC was > 100 µM throughout. In addition, the TGI in the test with TK-10 renal, with SNB-75 CNS and in the test with UACC-257 melanoma was > 100 µM each time.

`Cc1c[nH]c2c(O)cc3c(c12)[C@H](CCl)CN3C(=O)c1cc2cc(NC(=O)Nc3ccc4[nH]c(C(=O)N5C[C@@H](CCl)c6c5cc(O)c5[nH]cc(C)c65)cc4c3)ccc2[nH]1`: the GI50 in the test with HCT-15 colon is 47.9 µM and 0.000888 µg/mL; in the test on COLO 205 colon it was 0.0137 µM; with HCT-116 colon, 0.0031 µM; with UACC-257 melanoma, 1.27 ng/mL. Besides, the TGI was > 100 µM and 0.00213 µg/mL in the test on HCT-15 colon; 16.3 µM and 2e-06 µg/mL and 0.000888 µg/mL in the test on OVCAR-8 ovarian; > 100 µM and 0.00813 µg/mL in the test with HOP-92 NSCLC; 42.4 µM and 0.00318 µg/mL in the test on UACC-257 melanoma.

Turning to `C=CCC(N[C@H](CO)c1ccccc1)c1ccc2ccccc2n1` (stereo partly drawn), the GI50 with HCT-15 colon, with K-562 leukemia, in the test on COLO 205 colon, with OVCAR-8 ovarian, in the test on HCC-2998 colon and in the test with HCT-116 colon was > 100 µM in each case. Besides, the GI50 with TK-10 renal, in the test with SNB-75 CNS and in the test with UACC-257 melanoma was > 100 µM in each case. In addition, the TGI with HCT-15 colon, in the test on K-562 leukemia, in the test with COLO 205 colon, with OVCAR-8 ovarian, in the test with HCC-2998 colon and in the test on HCT-116 colon was > 100 µM in each case. The TGI in the test with TK-10 renal, in the test with SNB-75 CNS and in the test on UACC-257 melanoma was > 100 µM throughout.

Regarding `O=C1OC(CC(=O)c2ccc(Cl)c(Cl)c2)C(Cl)=C1Cl` (stereo not drawn), the TGI with HCT-15 colon, in the test with K-562 leukemia, in the test on COLO 205 colon, with OVCAR-8 ovarian, in the test on HCC-2998 colon and in the test with TK-10 renal was > 100 µM throughout. The TGI in the test with SNB-75 CNS and in the test with UACC-257 melanoma was > 100 µM throughout.

As for `CC(C)=CCCC(C)c1ccc(C)c2c1OCN(CC1CCNCC1)C2` (stereo not drawn), the GI50 is 6.51 µM in the test on HCT-15 colon; 2.68 µM in the test with K-562 leukemia; 1.86 µM in the test with COLO 205 colon; 18.4 µM with OVCAR-8 ovarian; 3.74 µM in the test on HCC-2998 colon; 7.17 µM with HCT-116 colon. Besides, the GI50 is 14.4 µM in the test with TK-10 renal and 11.9 µM in the test with SNB-75 CNS. For the same compound, the TGI was found to be 21.1 µM in the test on HCT-15 colon; 8.44 µM in the test with K-562 leukemia; 3.41 µM with COLO 205 colon; 34.5 µM with OVCAR-8 ovarian; 12.3 µM with HCC-2998 colon; 21.7 µM in the test on HCT-116 colon. The values for the TGI in the test with TK-10 renal and in the test on SNB-75 CNS were 29.3 µM and 24.3 µM, respectively.
